The numbers were not newly measured in patent publication US10918627B2, “Convergent and enantioselective total synthesis of Communesin analogs” (Massachusetts Institute of Technology, priority 2016, dated 2021), which cites them from elsewhere.

Converted amounts (≈) assume the structure as drawn.

The test system of series [1] is third instar larvae of silkworms. The conditions noted are these: Hayashi 2004.
Series [2] deals with bradycardia caused by astemidazole. To be noted: at different concentrations, Fan 2015.
In series [3] the test system is cardiovascular vessels. The conditions noted are these: Fan 2015.
The conditions of series [4]: Fan 2015.
Series [5] deals with mouse P-388 lymphocytic leukemia cells. To be noted: cultured mouse P-388 lymphocytic leukemia cells; Numata 1993.
Series [6] relates to human leukemia cell lines. The conditions noted are these: array of human leukemia cell lines; Jadulco 2004.
Series [7] has as its system brine shrimp Artemia salina. The conditions noted are these: Jadulco 2004.

Consider `CC(=O)N1CC[C@@]23c4ccccc4N[C@@H]4N(C)c5cccc6c5[C@@]42CCN([C@@H]6C=C(C)C)[C@@H]13` [Compound 1, (−)-Communesin F], for which, in series [1], the “insecticidal activity (comparative, in words)” value (“insecticidal activity” below) is listed as “lower insecticidal activities”.
As for `CC(=O)N1CC[C@@]23c4ccccc4N[C@@H]4N(C)c5cccc6c5[C@@]42CCN([C@@H]13)[C@@H]6[C@H]1OC1(C)C` [Compound 2, Communesin A], in series [2], the “mitigative effect on bradycardia” value is “significant mitigative effect”. Further, the “promotion of the function of cardiovascular vessels” value in series [3] is “moderately promote”. The vasculogenetic activity result in series [4] is on record as “moderate vasculogenetic activity”. Further, the “insecticidal activity” value in series [1] was “lower insecticidal activities”. Further, the ED50 cytotoxicity in series [5] was 3.5 µg/mL (≈ 7.67 µM).
On to `C/C=C/C=C/C(=O)N1CC[C@@]23c4ccccc4N[C@@H]4N(C)c5cccc6c5[C@@]42CCN([C@@H]13)[C@@H]6[C@H]1OC1(C)C` [Compound 4, Communesin B], for which, in series [6], the anti-proliferative activity result is reported as “moderate anti-proliferative activity”. Further, in series [2], the “mitigative effect on bradycardia” value is given as “significant mitigative effect”. In addition, the LD50 toxicity in series [7] was 0.30 µg/mL. The “insecticidal activity” value in series [1] was “most active”. The LD50 insecticidal in series [1] (oral administration) is reported as 5 μg/g of diet. The ED50 cytotoxicity in series [5] is 0.45 µg/mL (≈ 0.885 µM).
Consider `C/C=C/C=C/C(=O)N1CC[C@@]23c4ccccc4N[C@@H]4Nc5cccc6c5[C@@]42CCN([C@@H]13)[C@@H]6[C@H]1OC1(C)C` [Compound 5, communesin C], for which the anti-proliferative activity result in series [6] is on record as “moderate anti-proliferative activity”. Also, in series [7], the LD50 toxicity is 1.96 µg/mL.
In the case of `C/C=C/C=C/C(=O)N1CC[C@@]23c4ccccc4N[C@@H]4N(C=O)c5cccc6c5[C@@]42CCN([C@@H]13)[C@@H]6[C@H]1OC1(C)C` [Compound 6, communesin D], in series [6], the anti-proliferative activity result is on record as “moderate anti-proliferative activity”. Moreover, in series [7], the LD50 toxicity is 0.57 µg/mL. Also, the “insecticidal activity” value in series [1] was “lower insecticidal activities”.
Consider `CCC[C@H](O)CC(=O)N1CC[C@@]23c4ccccc4N[C@@H]4N(C)c5cccc6c5[C@@]42CCN([C@@H]13)[C@@H]6[C@H]1OC1(C)C` [Compound 9, communesin I], for which, in series [2], the “mitigative effect on bradycardia” value was “significant mitigative effect”. Moreover, in series [3], the “promotion of the function of cardiovascular vessels” value is given as “moderately promote”. In addition, the vasculogenetic activity result in series [4] was “moderate vasculogenetic activity”.
Consider Communesin E [Compound 3], for which the “insecticidal activity” value in series [1] is given as “lower insecticidal activities”.
